Assays:
Assay in all cases: Test E greenhouse herbicide test, pre- and postemergence
Type in all cases: in vivo
[1] = test system: crabgrass, Brazilian (Brazilian crabgrass, Digitaria horizontalis)
Method in brief: (§1)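 Herbicidal effect was judged by eye relative to untreated plants 14 to 21 d after spraying, using 0 for no effect and 100 for complete control. Preemergence sprays went onto freshly seeded silt loam; postemergence sprays onto 2–18 cm seedlings.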

[2] = test system: waterhemp (common waterhemp, Amaranthus rudis)
Method in brief: as §1

[3] = test system: surinam grass (Brachiaria decumbens); details: Preemergence
Method in brief: as §1

[4] = test system: nutsedge, yellow (yellow nutsedge, Cyperus esculentus); details: Preemergence
Method in brief: as §1

[5] = test system: pigweed, palmer (palmer pigweed, Amaranthus palmeri)
Method in brief: as §1

kochia (Kochia scoparia) = test system: kochia (Kochia scoparia)
Method in brief: as §1

[6] = test system: dayflower (Virginia (VA) dayflower, Commelina virginica)
Method in brief: as §1

[7] = test system: johnsongrass (Sorghum halepense); details: Preemergence
Method in brief: as §1

[8] = test system: barnyardgrass (Echinochloa crus-galli)
Method in brief: as §1

[9] = test system: goosegrass (Eleusine indica); details: Preemergence
Method in brief: as §1

[10] = 62 g ai/ha, Preemergence, scale 0 to 100 (0 no effect, 100 complete control)
[11] = Preemergence, 31 g ai/ha, scale 0 to 100, 0 no effect, 100 complete control
[12] = Preemergence, 125 g ai/ha, visual, scale 0 no effect to 100 complete control
[13] = Preemergence, 250 g ai/ha, visual, scale 0 no effect to 100 complete control
[14] = 125 g ai/ha, Preemergence, scale 0 to 100 (0 no effect, 100 complete control)
[15] = 62 g ai/ha, scale 0 to 100 (0 no effect, 100 complete control)
[16] = 125 g ai/ha, scale 0 to 100 (0 no effect, 100 complete control)
[17] = 31 g ai/ha, scale 0 to 100, 0 no effect, 100 complete control
[18] = 250 g ai/ha, visual, scale 0 no effect to 100 complete control
[19] = 125 g ai/ha, visual, scale 0 no effect to 100 complete control
[20] = 62 g ai/ha, Postemergence, scale 0 to 100 (0 no effect, 100 complete control)
[21] = 125 g ai/ha, Postemergence, scale 0 to 100 (0 no effect, 100 complete control)
[22] = 250 g ai/ha, Postemergence, scale 0 to 100 (0 no effect, 100 complete control)
[23] = Postemergence, 31 g ai/ha, visual, scale 0 no effect to 100 complete control

For Cc1ccc2ccccc2c1-c1c(O)c(I)nn(C)c1=O [Compound 29], the “Plant response rating, Crabgrass, Brazil” value [1, 10] was 75, the “Plant response rating, Crabgrass, Brazil” value [1, 11] was 30 and the “Plant response rating, Crabgrass, Brazil” value [1, 12] was 70. The “Plant response rating, Crabgrass, Brazil” value [1, 13] was 90, the “Plant response rating, Waterhemp” value [2, 10] was 90 and the “Plant response rating, Waterhemp” value [2, 14] was 98. For the same molecule, the “Plant response rating, Waterhemp” value [2, 11] was 80, the “Plant response rating, Waterhemp” value [2, 13] was 100 and the “Plant response rating, Surinam Grass” value [3, 15] was 95. For the same molecule, the “Plant response rating, Surinam Grass” value [3, 16] was 95, the “Plant response rating, Surinam Grass” value [3, 17] was 75 and the “Plant response rating, Surinam Grass” value [3, 18] was 100. The “Plant response rating, Nutsedge, Yellow” value [4, 15] was 0, the “Plant response rating, Nutsedge, Yellow” value [4, 16] was 30 and the “Plant response rating, Nutsedge, Yellow” value [4, 17] was 0. For the same molecule, the “Plant response rating, Nutsedge, Yellow” value [4, 18] was 70, the “Plant response rating, Pigweed, Palmer” value [5, 10] was 70 and the “Plant response rating, Pigweed, Palmer” value [5, 14] was 100. For the same molecule, the “Plant response rating, Pigweed, Palmer” value [5, 11] was 90, the “Plant response rating, Pigweed, Palmer” value [5, 13] was 100 and the “Plant response rating, Kochia” value (kochia (Kochia scoparia); [10]) was 0. For the same molecule, the “Plant response rating, Kochia” value (kochia (Kochia scoparia); [11]) was 0, the “Plant response rating, Kochia” value (kochia (Kochia scoparia); [12]) was 25 and the “Plant response rating, Kochia” value (kochia (Kochia scoparia); [13]) was 70. For the same molecule, the “Plant response rating, Dayflower, VA” value [6, 10] was 0, the “Plant response rating, Dayflower, VA” value [6, 11] was 0 and the “Plant response rating, Dayflower, VA” value [6, 12] was 10. The “Plant response rating, Dayflower, VA” value [6, 13] was 60, the “Plant response rating, Johnsongrass” value [7, 15] was 70 and the “Plant response rating, Johnsongrass” value [7, 17] was 70. The “Plant response rating, Johnsongrass” value [7, 19] was 65, the “Plant response rating, Johnsongrass” value [7, 18] was 100 and the “Plant response rating, Barnyardgrass” value [8, 10] was 25. For the same molecule, the “Plant response rating, Barnyardgrass” value [8, 11] was 0, the “Plant response rating, Barnyardgrass” value [8, 12] was 65 and the “Plant response rating, Barnyardgrass” value [8, 13] was 90. The “Plant response rating, Goosegrass” value [9, 15] was 20, the “Plant response rating, Goosegrass” value [9, 17] was 0 and the “Plant response rating, Goosegrass” value [9, 19] was 50. The “Plant response rating, Goosegrass” value [9, 18] was 90.

Cc1cc2ccccc2c(-c2c(O)c(C)nn(C)c2=O)c1C [Compound 34] was tested, and the “Plant response rating, Crabgrass, Brazil” value [1, 20] was 40, the “Plant response rating, Crabgrass, Brazil” value [1, 10] was 10 and the “Plant response rating, Crabgrass, Brazil” value [1, 21] was 50. For the same molecule, the “Plant response rating, Crabgrass, Brazil” value [1, 22] was 50, the “Plant response rating, Crabgrass, Brazil” value [1, 23] was 40 and the “Plant response rating, Crabgrass, Brazil” value [1, 11] was 0. The “Plant response rating, Crabgrass, Brazil” value [1, 12] was 80, the “Plant response rating, Crabgrass, Brazil” value [1, 13] was 80 and the “Plant response rating, Waterhemp” value [2, 20] was 85. The “Plant response rating, Waterhemp” value [2, 10] was 100, the “Plant response rating, Waterhemp” value [2, 21] was 85 and the “Plant response rating, Waterhemp” value [2, 14] was 100. The “Plant response rating, Waterhemp” value [2, 22] was 90, the “Plant response rating, Waterhemp” value [2, 23] was 70 and the “Plant response rating, Waterhemp” value [2, 11] was 100. The “Plant response rating, Waterhemp” value [2, 13] was 100, the “Plant response rating, Surinam Grass” value [3, 15] was 75 and the “Plant response rating, Surinam Grass” value [3, 16] was 95. For the same molecule, the “Plant response rating, Surinam Grass” value [3, 17] was 5, the “Plant response rating, Surinam Grass” value [3, 18] was 80 and the “Plant response rating, Nutsedge, Yellow” value [4, 15] was 80. For the same molecule, the “Plant response rating, Nutsedge, Yellow” value [4, 16] was 40, the “Plant response rating, Nutsedge, Yellow” value [4, 17] was 0 and the “Plant response rating, Nutsedge, Yellow” value [4, 18] was 80. The “Plant response rating, Pigweed, Palmer” value [5, 20] was 80, the “Plant response rating, Pigweed, Palmer” value [5, 10] was 0 and the “Plant response rating, Pigweed, Palmer” value [5, 21] was 65. For the same molecule, the “Plant response rating, Pigweed, Palmer” value [5, 14] was 90, the “Plant response rating, Pigweed, Palmer” value [5, 22] was 75 and the “Plant response rating, Pigweed, Palmer” value [5, 23] was 50. The “Plant response rating, Pigweed, Palmer” value [5, 11] was 0, the “Plant response rating, Pigweed, Palmer” value [5, 13] was 90 and the “Plant response rating, Kochia” value (kochia (Kochia scoparia); [20]) was 98. For the same molecule, the “Plant response rating, Kochia” value (kochia (Kochia scoparia); [10]) was 5, the “Plant response rating, Kochia” value (kochia (Kochia scoparia); [21]) was 85 and the “Plant response rating, Kochia” value (kochia (Kochia scoparia); [22]) was 85. For the same molecule, the “Plant response rating, Kochia” value (kochia (Kochia scoparia); [23]) was 70, the “Plant response rating, Kochia” value (kochia (Kochia scoparia); [11]) was 0 and the “Plant response rating, Kochia” value (kochia (Kochia scoparia); [12]) was 5. For the same molecule, the “Plant response rating, Kochia” value (kochia (Kochia scoparia); [13]) was 85, the “Plant response rating, Dayflower, VA” value [6, 20] was 80 and the “Plant response rating, Dayflower, VA” value [6, 10] was 35. The “Plant response rating, Dayflower, VA” value [6, 21] was 90, the “Plant response rating, Dayflower, VA” value [6, 22] was 90 and the “Plant response rating, Dayflower, VA” value [6, 23] was 60. For the same molecule, the “Plant response rating, Dayflower, VA” value [6, 11] was 35, the “Plant response rating, Dayflower, VA” value [6, 12] was 70 and the “Plant response rating, Dayflower, VA” value [6, 13] was 90. For the same molecule, the “Plant response rating, Johnsongrass” value [7, 15] was 0, the “Plant response rating, Johnsongrass” value [7, 17] was 0 and the “Plant response rating, Johnsongrass” value [7, 19] was 0. The “Plant response rating, Johnsongrass” value [7, 18] was 0, the “Plant response rating, Barnyardgrass” value [8, 20] was 40 and the “Plant response rating, Barnyardgrass” value [8, 10] was 0. For the same molecule, the “Plant response rating, Barnyardgrass” value [8, 21] was 40, the “Plant response rating, Barnyardgrass” value [8, 22] was 40 and the “Plant response rating, Barnyardgrass” value [8, 23] was 30. The “Plant response rating, Barnyardgrass” value [8, 11] was 0, the “Plant response rating, Barnyardgrass” value [8, 12] was 35 and the “Plant response rating, Barnyardgrass” value [8, 13] was 65. The “Plant response rating, Goosegrass” value [9, 15] was 5, the “Plant response rating, Goosegrass” value [9, 17] was 5 and the “Plant response rating, Goosegrass” value [9, 19] was 10. For the same molecule, the “Plant response rating, Goosegrass” value [9, 18] was 10.

Cc1nn(C)c(=O)c(-c2ccc(F)c3ccccc23)c1O [Compound 41] was tested, and the “Plant response rating, Crabgrass, Brazil” value [1, 20] was 20, the “Plant response rating, Crabgrass, Brazil” value [1, 10] was 65 and the “Plant response rating, Crabgrass, Brazil” value [1, 21] was 30. For the same molecule, the “Plant response rating, Crabgrass, Brazil” value [1, 22] was 50, the “Plant response rating, Crabgrass, Brazil” value [1, 23] was 10 and the “Plant response rating, Crabgrass, Brazil” value [1, 11] was 80. For the same molecule, the “Plant response rating, Crabgrass, Brazil” value [1, 12] was 100, the “Plant response rating, Crabgrass, Brazil” value [1, 13] was 80 and the “Plant response rating, Waterhemp” value [2, 20] was 85. For the same molecule, the “Plant response rating, Waterhemp” value [2, 10] was 98, the “Plant response rating, Waterhemp” value [2, 21] was 90 and the “Plant response rating, Waterhemp” value [2, 14] was 100. For the same molecule, the “Plant response rating, Waterhemp” value [2, 22] was 85, the “Plant response rating, Waterhemp” value [2, 23] was 75 and the “Plant response rating, Waterhemp” value [2, 11] was 75. For the same molecule, the “Plant response rating, Waterhemp” value [2, 13] was 100, the “Plant response rating, Surinam Grass” value [3, 15] was 75 and the “Plant response rating, Surinam Grass” value [3, 16] was 75. The “Plant response rating, Surinam Grass” value [3, 17] was 10, the “Plant response rating, Surinam Grass” value [3, 18] was 95 and the “Plant response rating, Nutsedge, Yellow” value [4, 15] was 65. For the same molecule, the “Plant response rating, Nutsedge, Yellow” value [4, 16] was 75, the “Plant response rating, Nutsedge, Yellow” value [4, 17] was 25 and the “Plant response rating, Nutsedge, Yellow” value [4, 18] was 85. For the same molecule, the “Plant response rating, Pigweed, Palmer” value [5, 20] was 60, the “Plant response rating, Pigweed, Palmer” value [5, 10] was 85 and the “Plant response rating, Pigweed, Palmer” value [5, 21] was 90. The “Plant response rating, Pigweed, Palmer” value [5, 14] was 75, the “Plant response rating, Pigweed, Palmer” value [5, 22] was 95 and the “Plant response rating, Pigweed, Palmer” value [5, 23] was 50. For the same molecule, the “Plant response rating, Pigweed, Palmer” value [5, 11] was 15, the “Plant response rating, Pigweed, Palmer” value [5, 13] was 85 and the “Plant response rating, Kochia” value (kochia (Kochia scoparia); [20]) was 95. The “Plant response rating, Kochia” value (kochia (Kochia scoparia); [10]) was 90, the “Plant response rating, Kochia” value (kochia (Kochia scoparia); [21]) was 95 and the “Plant response rating, Kochia” value (kochia (Kochia scoparia); [22]) was 95. For the same molecule, the “Plant response rating, Kochia” value (kochia (Kochia scoparia); [23]) was 90, the “Plant response rating, Kochia” value (kochia (Kochia scoparia); [11]) was 90 and the “Plant response rating, Kochia” value (kochia (Kochia scoparia); [12]) was 100. For the same molecule, the “Plant response rating, Kochia” value (kochia (Kochia scoparia); [13]) was 100, the “Plant response rating, Dayflower, VA” value [6, 20] was 40 and the “Plant response rating, Dayflower, VA” value [6, 10] was 40. The “Plant response rating, Dayflower, VA” value [6, 21] was 85, the “Plant response rating, Dayflower, VA” value [6, 22] was 90 and the “Plant response rating, Dayflower, VA” value [6, 23] was 50. For the same molecule, the “Plant response rating, Dayflower, VA” value [6, 11] was 15, the “Plant response rating, Dayflower, VA” value [6, 12] was 70 and the “Plant response rating, Dayflower, VA” value [6, 13] was 80. For the same molecule, the “Plant response rating, Johnsongrass” value [7, 15] was 0, the “Plant response rating, Johnsongrass” value [7, 17] was 0 and the “Plant response rating, Johnsongrass” value [7, 19] was 0. The “Plant response rating, Johnsongrass” value [7, 18] was 25, the “Plant response rating, Barnyardgrass” value [8, 20] was 35 and the “Plant response rating, Barnyardgrass” value [8, 10] was 25. The “Plant response rating, Barnyardgrass” value [8, 21] was 50, the “Plant response rating, Barnyardgrass” value [8, 22] was 60 and the “Plant response rating, Barnyardgrass” value [8, 23] was 20. The “Plant response rating, Barnyardgrass” value [8, 11] was 10, the “Plant response rating, Barnyardgrass” value [8, 12] was 40 and the “Plant response rating, Barnyardgrass” value [8, 13] was 65. The “Plant response rating, Goosegrass” value [9, 15] was 0, the “Plant response rating, Goosegrass” value [9, 17] was 0 and the “Plant response rating, Goosegrass” value [9, 19] was 50. For the same molecule, the “Plant response rating, Goosegrass” value [9, 18] was 60.
